The record followed here is patent publication US20210284617A1, “Synthesis of (S)-2-Amino-4-Methyl-((R)-2-Methyloxirane-2-Yl)-Pentan-1-One and Pharmaceutically Acceptable Salts Thereof” (Amgen Inc., priority 2016, published 2021).

The nature of data set [1]: Storage stability of the step 2 product, concentrated or in ACN/MTBE solution. The format is physicochemical. The following applies: for time stable in solution: 2-10 V of ACN or MTBE. An excerpt: Appropriate quenching of the Grignard process is important to ensure product quality and to eliminate racemization. A Grignard adduct impurity resulting from double-addition of the Grignard reagent was detected by LCMS at ˜2 LCAP during inverse addition of the reaction mixture to a mixture of MTBE (5 V) and 25% citric acid aqueous solution (10 V). An increase in the level of the double-addition by-product (up to 11 LCAP) was observed when quenching the reaction mixture into citric acid solution (in the absence of MTBE) with an associated decrease in product yield by >35%. The excess Grignard could react with product of step 2 that was hydrolyzed after work-up leading to the formation of the impurity. Of note, the impurities of double-addition, morpholine-adduct and dimers could not be detected by HPLC due to their relatively low response factors, but could be detected by LCMS and TLC (EtOAc/heptane 1:4, Nihydrin). Thus, it is important to carefully control the amount of Grignard reagents used and to carefully quench the reaction upon completion. Racemization of step 2 product was not observed during the course of optimization of the Grignard process or during the inverse quenching step. The concentrated product with BHT was stable at ambient temperature for one month; BHT in this sample originated from the solvent (250 ppm in stabilized THF) used in the Grignard process. The solution containing the product of step 2 in 2-10 V of ACN or MTBE was stable at room temperature or 5° C. for at least 4 days or 18 hours at 35° C., which was required to optimize the solvent switch to ACN for the step 3 epoxidation.

Data set [2] in a line: Solubility of compound in organic solvents (crystallization development). The format is physicochemical. As to conditions: for solubility in organic solvents (in words): isolation/crystallization context. An excerpt: Importantly, the intermediate synthesis of compound 3a allowed for the development of a crystallization process capable of purging upstream impurities and eliminating the requirement for column chromatography at step 1 or 2. […] Alternatively, a ternary system of three (3) solvents, such as acetonitrile/water/acetic acid will also work to isolate compound 3a. Further, the epoxidation step 3 in scheme 3 using the Mn-y76t catalyst of the present invention followed by crystallization with IPA/water worked well to not only to purge the diasteromer impurity but also to purge upstream process impurities.

Values after ≈ are worked out from the molar mass of the structure shown.

Take `C=C(C)C(=O)[C@@H](CC(C)C)NC(=O)OC(C)(C)C` [compound 2a, (R)-tert-butyl (2,6-dimethyl-3-oxohept-1-en-4-yl)carbamate]: the “time stable in solution” value in data set [1] (35° C.) was 18 h; in data set [1] (room temperature or 5° C.), “at least 4 days”. For the same compound, the “time stable as concentrated product” value in data set [1] (concentrated product with BHT, ambient temperature) is “one month”.

Consider `CC(C)C[C@@H](NC(=O)OC(C)(C)C)C(=O)[C@@]1(C)CO1` [compound 3a, tert-butyl ((R)-4-methyl-1-((R)-2-methyloxiran-2-yl)-1-oxopentan-2-yl)carbamate], for which, in data set [2], the “solubility in organic solvents (in words)” value is “improved solubility profile”.

As to `CC(C)C[C@H](NC(=O)OC(C)(C)C)C(=O)[C@@]1(C)CO1` [compound 4a, tert-butyl ((S)-4-methyl-1-((R)-2-methyloxiran-2-yl)-1-oxopentan-2-yl)carbamate], the solubility in data set [2] (organic solvent or mixture, n-hexane at −20° C.) was approximately 34 mg/mL (≈ 125 mM). Moreover, the “solubility in organic solvents (in words)” value in data set [2] is reported as “high solubility in most all organic solvents”.
